# From article PMC5079764 (Bioorganic & medicinal chemistry, 2016)
# How the values were obtained:
# [1] = target: T1, D2 receptor (Homo sapiens, UniProt P14416); assay: NIMH-PDSP receptor binding affinity, D2; settings: Table 1; MTA = Missed 50% of threshold inhibition
# [2] = target: T1, D2 receptor; settings: Table 1; cited from earlier work
# [3] = target: T2, D4 receptor (Homo sapiens, UniProt P21917); settings: Table 1; cited from earlier work
# T2 sequence (P21917 1-419): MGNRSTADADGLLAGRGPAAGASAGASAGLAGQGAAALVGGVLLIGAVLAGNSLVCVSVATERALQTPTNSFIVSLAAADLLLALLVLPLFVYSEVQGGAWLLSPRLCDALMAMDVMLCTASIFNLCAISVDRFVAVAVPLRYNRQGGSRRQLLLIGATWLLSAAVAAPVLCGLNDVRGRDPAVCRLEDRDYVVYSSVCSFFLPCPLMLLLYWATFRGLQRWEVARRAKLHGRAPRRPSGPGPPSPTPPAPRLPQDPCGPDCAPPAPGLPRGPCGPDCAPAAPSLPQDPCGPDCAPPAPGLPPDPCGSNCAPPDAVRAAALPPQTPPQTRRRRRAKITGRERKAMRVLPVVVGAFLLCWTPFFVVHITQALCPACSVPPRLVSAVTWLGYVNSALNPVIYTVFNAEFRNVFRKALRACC
# [4] = target: T3, 5-HT1A receptor (Homo sapiens, UniProt P08908); settings: Table 1, cited from earlier work
# T3 sequence (P08908 1-422): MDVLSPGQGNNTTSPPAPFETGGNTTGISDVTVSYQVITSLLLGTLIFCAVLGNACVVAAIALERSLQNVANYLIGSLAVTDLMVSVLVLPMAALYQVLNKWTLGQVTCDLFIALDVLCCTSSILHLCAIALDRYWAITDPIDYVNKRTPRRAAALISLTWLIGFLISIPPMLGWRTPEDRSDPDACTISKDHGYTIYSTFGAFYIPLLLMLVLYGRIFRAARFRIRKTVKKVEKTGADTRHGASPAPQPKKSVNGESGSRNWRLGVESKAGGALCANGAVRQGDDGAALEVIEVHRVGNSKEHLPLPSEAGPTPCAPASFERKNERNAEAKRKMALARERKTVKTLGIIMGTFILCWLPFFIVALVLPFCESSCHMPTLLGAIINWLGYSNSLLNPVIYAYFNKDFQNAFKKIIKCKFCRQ
# [5] = target: 5-HT2A receptor (Homo sapiens, UniProt P28223); settings: Table 1; cited from earlier work
# [6] = target: 5-HT7 receptor (Homo sapiens, UniProt P34969); settings: Table 1; cited from earlier work
# [7] = target: T4, 5-HT2B receptor (Homo sapiens, UniProt P41595); settings: Table 1; cited from earlier work
# [8] = target: T5, 5-HT2C receptor (Homo sapiens, UniProt P28335); settings: Table 1; cited from earlier work
# T5 sequence (P28335 33-458): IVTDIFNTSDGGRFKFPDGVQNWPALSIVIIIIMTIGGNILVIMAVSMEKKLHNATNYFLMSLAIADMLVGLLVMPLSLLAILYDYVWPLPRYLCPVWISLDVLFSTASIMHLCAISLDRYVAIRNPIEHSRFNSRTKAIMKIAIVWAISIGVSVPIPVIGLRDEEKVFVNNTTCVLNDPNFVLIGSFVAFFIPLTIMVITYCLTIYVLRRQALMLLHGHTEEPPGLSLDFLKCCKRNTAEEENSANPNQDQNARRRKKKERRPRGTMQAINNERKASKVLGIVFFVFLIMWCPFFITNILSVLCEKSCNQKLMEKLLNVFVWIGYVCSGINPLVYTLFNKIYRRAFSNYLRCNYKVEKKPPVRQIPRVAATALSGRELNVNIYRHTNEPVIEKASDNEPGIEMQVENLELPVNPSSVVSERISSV
# [9] = target: H1 receptor (Homo sapiens, UniProt P35367); settings: Table 1; cited from earlier work
# [10] = target: T4, 5-HT2B receptor; assay: NIMH-PDSP receptor binding affinity, 5-HT2B; settings: Table 1; MTA = Missed 50% of threshold inhibition
# T1 sequence (P14416 whole entry): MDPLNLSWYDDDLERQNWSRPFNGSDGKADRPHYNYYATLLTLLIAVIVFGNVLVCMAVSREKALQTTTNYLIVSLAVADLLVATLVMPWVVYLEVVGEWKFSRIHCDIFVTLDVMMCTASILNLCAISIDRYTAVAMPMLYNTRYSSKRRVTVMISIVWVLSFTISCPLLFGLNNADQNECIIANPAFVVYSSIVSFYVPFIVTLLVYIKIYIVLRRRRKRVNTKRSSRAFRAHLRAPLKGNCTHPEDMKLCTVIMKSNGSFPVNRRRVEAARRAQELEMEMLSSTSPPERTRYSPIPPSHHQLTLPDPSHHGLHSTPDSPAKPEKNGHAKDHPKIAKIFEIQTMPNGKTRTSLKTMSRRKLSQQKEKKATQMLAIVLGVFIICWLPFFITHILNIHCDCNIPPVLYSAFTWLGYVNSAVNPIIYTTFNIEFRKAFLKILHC
# T4 sequence (P41595 whole entry): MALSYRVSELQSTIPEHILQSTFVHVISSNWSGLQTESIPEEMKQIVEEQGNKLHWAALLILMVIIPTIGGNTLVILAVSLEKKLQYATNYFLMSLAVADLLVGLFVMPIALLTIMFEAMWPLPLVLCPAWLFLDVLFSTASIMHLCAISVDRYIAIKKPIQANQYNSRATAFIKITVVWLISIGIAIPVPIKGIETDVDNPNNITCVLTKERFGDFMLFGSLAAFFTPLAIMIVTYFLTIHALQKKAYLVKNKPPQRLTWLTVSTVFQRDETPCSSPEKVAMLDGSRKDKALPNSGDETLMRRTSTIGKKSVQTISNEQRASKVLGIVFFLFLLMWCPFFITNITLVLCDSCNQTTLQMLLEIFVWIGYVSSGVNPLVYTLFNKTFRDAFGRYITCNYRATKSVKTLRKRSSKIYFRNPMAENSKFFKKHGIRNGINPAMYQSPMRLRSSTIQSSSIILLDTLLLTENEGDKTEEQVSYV
# Sequence of 5-HT7 receptor (P34969 whole entry): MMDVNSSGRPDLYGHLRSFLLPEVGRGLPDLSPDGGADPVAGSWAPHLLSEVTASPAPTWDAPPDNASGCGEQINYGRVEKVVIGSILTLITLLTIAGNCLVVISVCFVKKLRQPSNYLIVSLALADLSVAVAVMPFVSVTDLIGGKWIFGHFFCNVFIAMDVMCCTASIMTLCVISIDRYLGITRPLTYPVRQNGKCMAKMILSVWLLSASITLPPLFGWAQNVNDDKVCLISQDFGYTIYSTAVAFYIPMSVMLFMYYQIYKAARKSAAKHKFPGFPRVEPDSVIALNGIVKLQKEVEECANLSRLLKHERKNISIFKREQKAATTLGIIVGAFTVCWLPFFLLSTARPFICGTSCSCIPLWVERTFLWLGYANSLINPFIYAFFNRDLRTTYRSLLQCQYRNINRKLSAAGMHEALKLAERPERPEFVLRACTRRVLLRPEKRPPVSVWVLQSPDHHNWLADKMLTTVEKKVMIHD
# Sequence of H1 receptor (P35367 whole entry): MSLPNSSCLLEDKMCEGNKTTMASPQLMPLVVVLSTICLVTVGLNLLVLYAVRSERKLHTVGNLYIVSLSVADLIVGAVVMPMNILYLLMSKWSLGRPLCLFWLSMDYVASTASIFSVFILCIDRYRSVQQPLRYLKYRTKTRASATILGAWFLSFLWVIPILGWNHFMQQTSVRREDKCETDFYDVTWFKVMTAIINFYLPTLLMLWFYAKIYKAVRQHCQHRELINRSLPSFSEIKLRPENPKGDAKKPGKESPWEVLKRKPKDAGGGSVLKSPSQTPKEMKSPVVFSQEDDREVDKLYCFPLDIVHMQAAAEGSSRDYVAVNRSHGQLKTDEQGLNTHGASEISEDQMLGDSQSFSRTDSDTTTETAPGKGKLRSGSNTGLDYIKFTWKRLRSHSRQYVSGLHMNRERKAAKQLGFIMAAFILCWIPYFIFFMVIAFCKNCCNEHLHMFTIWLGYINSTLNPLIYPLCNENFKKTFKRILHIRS
# Sequence of 5-HT2A receptor (P28223 whole entry): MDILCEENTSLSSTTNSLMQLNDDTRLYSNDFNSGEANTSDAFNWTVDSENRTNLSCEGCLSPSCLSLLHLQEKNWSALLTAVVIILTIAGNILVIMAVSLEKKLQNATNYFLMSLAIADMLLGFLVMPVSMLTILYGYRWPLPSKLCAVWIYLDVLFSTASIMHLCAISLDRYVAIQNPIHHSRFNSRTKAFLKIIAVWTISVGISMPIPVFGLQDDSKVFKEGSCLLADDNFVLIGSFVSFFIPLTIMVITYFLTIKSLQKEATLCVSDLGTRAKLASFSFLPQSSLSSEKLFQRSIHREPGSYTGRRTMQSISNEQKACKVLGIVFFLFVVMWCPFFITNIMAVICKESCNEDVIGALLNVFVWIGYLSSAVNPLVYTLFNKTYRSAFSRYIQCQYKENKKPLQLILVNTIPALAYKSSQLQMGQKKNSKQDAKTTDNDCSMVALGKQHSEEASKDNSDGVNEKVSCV
smiles,measurement,setting,value
"Br.c1ccc2c(c1)CCN(CCCc1nc3ccccc3s1)C2 [Compound 1b, 2-(3-(3,4-Dihydroisoquinolin-2(1H)-yl)propyl)benzo[d]thiazole hydrobromide]",Ki (nM) D2,[1],MTA
"c1ccc2c(c1)CCN(CCCCc1nc3ccccc3s1)C2 [Compound 1a, 2-(4-(3,4-Dihydroisoquinolin-2(1H)-yl)butyl)benzo[d]thiazole]",pKi±SEM D2,[2],6.78±0.09
same,pKi±SEM D4,[3],7.17±0.05
same,pKi±SEM 5-HT1A,[4],8±0.03
same,Ki,"[4]; read-out: Ki (nM) 5-HT1A, MTA = Missed 50% of threshold inhibition",10 nM
same,pKi±SEM 5-HT2A,[5],5.77±0.06
same,pKi±SEM 5-HT7,[6],7.66±0.06
same,pKi±SEM 5-HT2B,[7],7.74±0.05
same,pKi±SEM 5-HT2C,[8],6.04±0.04
same,pKi±SEM H1,[9],6.23±0.08
"Cl.Cl.c1ccc2c(c1)CCN(CCCc1nc3ccccc3[nH]1)C2 [Compound 1d, 2-(3-(1H-benzo[d]imidazol-2-yl)propyl)-1,2,3,4-tetrahydroisoquinoline]",Ki (nM) 5-HT2B,[10],MTA
